Key:
Human β2 adrenoceptor = Human β2 adrenoceptor (Homo sapiens, UniProt P07550); details: read-out: B2 binding affinity
Human M3 receptor = Human M3 receptor (Homo sapiens, UniProt P20309); details: read-out: M3 binding affinity
Human M3 receptor, sequence (P20309 whole entry): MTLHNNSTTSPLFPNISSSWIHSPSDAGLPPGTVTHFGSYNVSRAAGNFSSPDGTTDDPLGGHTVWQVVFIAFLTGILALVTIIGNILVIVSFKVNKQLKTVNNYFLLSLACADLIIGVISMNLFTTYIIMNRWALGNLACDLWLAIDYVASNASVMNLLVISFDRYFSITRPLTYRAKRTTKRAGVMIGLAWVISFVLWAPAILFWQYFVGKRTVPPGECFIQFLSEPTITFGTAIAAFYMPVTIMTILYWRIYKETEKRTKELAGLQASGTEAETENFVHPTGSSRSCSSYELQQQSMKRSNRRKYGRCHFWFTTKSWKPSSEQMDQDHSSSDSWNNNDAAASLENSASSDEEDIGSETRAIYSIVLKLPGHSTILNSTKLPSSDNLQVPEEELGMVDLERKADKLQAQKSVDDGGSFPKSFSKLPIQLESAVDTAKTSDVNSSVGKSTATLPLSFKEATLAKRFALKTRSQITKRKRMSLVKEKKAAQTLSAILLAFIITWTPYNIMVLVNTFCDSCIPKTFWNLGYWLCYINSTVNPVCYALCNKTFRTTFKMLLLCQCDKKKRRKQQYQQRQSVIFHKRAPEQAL

Human β2 adrenoceptor, sequence (P07550 whole entry): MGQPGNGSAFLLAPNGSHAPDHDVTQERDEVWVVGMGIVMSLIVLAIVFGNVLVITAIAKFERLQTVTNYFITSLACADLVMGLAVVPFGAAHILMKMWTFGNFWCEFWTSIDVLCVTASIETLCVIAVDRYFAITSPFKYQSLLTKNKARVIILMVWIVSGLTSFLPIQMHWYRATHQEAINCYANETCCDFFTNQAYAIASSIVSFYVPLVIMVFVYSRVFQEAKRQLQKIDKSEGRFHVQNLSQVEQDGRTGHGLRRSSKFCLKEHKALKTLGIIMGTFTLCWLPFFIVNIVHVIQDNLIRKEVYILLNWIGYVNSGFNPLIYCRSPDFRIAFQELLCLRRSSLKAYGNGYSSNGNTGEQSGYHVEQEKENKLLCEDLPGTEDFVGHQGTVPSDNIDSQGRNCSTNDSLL

Row | SMILES | IC50 (Human β2 adrenoceptor) [nM] | IC50 (Human M3 receptor) [nM]
1 | O=C(COc1cccc([C@](O)(C(=O)OCC2CCN(Cc3ccccc3)CC2)c2ccccc2)c1)NCC(=O)N1CCC(CNC[C@H](O)c2ccc(O)c3[nH]c(=O)ccc23)CC1 [Compound 150, (1-benzylpiperidin-4-yl)methyl (S)-2-hydroxy-2-(3-(2-((2-(4-((((R)-2-hydroxy-2-(8-hydroxy-2-oxo-1,2-dihydroquinolin-5-yl)ethyl)amino)methyl)piperidin-1-yl)-2-oxoethyl)amino)-2-oxoethoxy)phenyl)-2-phenylacetate] | < 0.3 | < 0.3
2 | O=C(COc1cccc([C@](O)(C(=O)OCC2CCN(Cc3ccccc3)CC2)c2ccccc2)c1)NC1CN(C(=O)c2ccc(CNC[C@H](O)c3ccc(O)c4[nH]c(=O)ccc34)cc2)C1 [Compound 66, (1-benzylpiperidin-4-yl)methyl (S)-2-hydroxy-2-(3-(2-((1-(4-((((R)-2-hydroxy-2-(8-hydroxy-2-oxo-1,2-dihydroquinolin-5-yl)ethyl)amino)methyl)benzoyl)azetidin-3-yl)amino)-2-oxoethoxy)phenyl)-2-phenylacetate] | < 0.3 | 0.3 to 3
3 | O=C(OCC1CCN(Cc2ccccc2)CC1)[C@@](O)(c1ccccc1)c1cccc(OCCCCCNC[C@H](O)c2ccc(O)c3[nH]c(=O)ccc23)c1 [Compound 14, (R)-(1-benzylpiperidin-4-yl)methyl 2-hydroxy-2-(3-((5-(((R)-2-hydroxy-2-(8-hydroxy-2-oxo-1,2-dihydroquinolin-5-yl)ethyl)amino)pentyl)oxy)phenyl)-2-phenylacetate] | < 0.3 | > 3
4 | COc1cc(CNC[C@H](O)c2ccc(O)c3[nH]c(=O)ccc23)ccc1C(=O)N1CCC2(CCN(C(=O)COc3cccc([C@](O)(C(=O)OCC4CCN(Cc5ccccc5)CC4)c4ccccc4)c3)CC2)CC1 [Compound 81, (1-benzylpiperidin-4-yl)methyl (S)-2-hydroxy-2-(3-(2-(9-(4-((((R)-2-hydroxy-2-(8-hydroxy-2-oxo-1,2-dihydroquinolin-5-yl)ethyl)amino)methyl)-2-methoxybenzoyl)-3,9-diazaspiro[5.5]undecan-3-yl)-2-oxoethoxy)phenyl)-2-phenylacetate] | 0.3 to 3 | 0.3 to 3
5 | CCc1cccc(C(O)(C(=O)OCC2CCN(Cc3ccccc3)CC2)c2cccc(OCCCCCNC[C@H](O)c3ccc(O)c4[nH]c(=O)ccc34)c2)c1 (stereo partly drawn) [Compound 11, (1-benzylpiperidin-4-yl)methyl 2-(3-ethylphenyl)-2-hydroxy-2-(3-((5-(((R)-2-hydroxy-2-(8-hydroxy-2-oxo-1,2-dihydroquinolin-5-yl)ethyl)amino)pentyl)oxy)phenyl)acetate] | < 0.3 | < 0.3
6 | COc1cc(C(=O)N2CC(NC(=O)COc3cccc([C@](O)(C(=O)OCC4CCN(Cc5ccccc5)CC4)c4ccccc4)c3)C2)ccc1CNC[C@H](O)c1ccc(O)c2[nH]c(=O)ccc12 [Compound 78, (1-benzylpiperidin-4-yl)methyl (S)-2-hydroxy-2-(3-(2-((1-(4-((((R)-2-hydroxy-2-(8-hydroxy-2-oxo-1,2-dihydroquinolin-5-yl)ethyl)amino)methyl)-3-methoxybenzoyl)azetidin-3-yl)amino)-2-oxoethoxy)phenyl)-2-phenylacetate] | < 0.3 | < 0.3
7 | CN1CCC(COC(=O)[C@](O)(c2ccccc2)c2cccc(OCCCNC(=O)c3ccc(CNC[C@H](O)c4ccc(O)c5[nH]c(=O)ccc45)cc3)c2)CC1 [Compound 162, (1-methylpiperidin-4-yl)methyl (S)-2-hydroxy-2-(3-(3-(4-((((R)-2-hydroxy-2-(8-hydroxy-2-oxo-1,2-dihydroquinolin-5-yl)ethyl)amino)methyl)benzamido)propoxy)phenyl)-2-phenylacetate] | < 0.3 | 0.3 to 3

From patent US9579314B2 (priority 2015, dated 2017)
